The test system of test [1] is ERBB2;PIK3CA (human), P42336 [Assessment of Cell Proliferation in MCF7.1 Cells Expressed by ERBB2/ PI3K(E545K)]. Description: Assessment of Cell Proliferation in MCF7.1 Cells Expressed by ERBB2/ PI3K(E545K).
Test [2] concerns the target EGFR (human) (UniProt P00533).
The target of the next test is CDK2 (human) (UniProt P24941). As to the kind of experiment: Enzyme Assay.
The target in test [3] is EGFR (human) (UniProt P00533). This is another data set of the same source.
For test [4], the target named is EGFR (human) (UniProt P00533). The source holds these as a separate data set.
In test [5] the target is MAPK14 (human) (UniProt Q16539). As to the kind of experiment: Inhibition of Doubly Phosphorylated MAPK14 Kinase Activity (Biochemical Assay).
Test [6] addresses PIK3CB;PIK3CG;PIK3CD;PIK3CA (human) (UniProt P48736). As to the kind of experiment: Inhibition of PIK3CA/PIK3CB/PIK3CD/PIK3CG Kinase Activity.
The target in test [7] is EGFR (human) (UniProt P00533). To be noted: a431.
The target in test [8] is PIK3CD (Human) (UniProt O00329). Description: Inhibition of PIK3CD Kinase Activity.
The target of test [9] is MAPK14 (human) (UniProt Q16539). Description: Inhibition of LPS-stimulated TNF-alpha Production in Human Monocytic Cells. To be noted: thp.1 monocytic.
Test [10] addresses EGFR (human) (UniProt P00533). To be noted: hn5.
The target in a further test is EGFR (UniProt P00533).
Test [11] addresses EGFR (Human), P00533 [T790M/L858R].
In a further test the target is PIK3CB (Human) (UniProt P42338). As to the kind of experiment: Assessment of PIK3CB Kinase Activity.
In test [12] the target is PIK3CD (Human) (UniProt O00329). Description: Assessment of PIK3CD Kinase Activity.
The next test concerns the target MAPK14 (murine). As to the kind of experiment: Inhibition of MAPK14 Kinase Assay.
Test [13] concerns the target MAPK14 (human) (UniProt Q16539). As to the kind of experiment: Inhibition of LPS Induced TNF-alpha Production in THP-1 Cells. To be noted: thp1.
Test [14] shares this target. Description: Inhibition of MAPK14 Kinase Activity.

From the Kinase Knowledgebase extract (Sharma et al. 2016) come the findings set out here.

pEC50, pIC50: −log10 of the molar value. Values joined by “and” are separate entries in the source; they are usually repeats but may differ in a detail not shown here. Equal values may be shown once. Where only a bound is given, the exact number is not on record here.

Sequence of ERBB2;PIK3CA (human), P42336 [Assessment of Cell Proliferation in MCF7.1 Cells Expressed by ERBB2/ PI3K(E545K)] (P42336 whole entry, looked up, stated change not applied): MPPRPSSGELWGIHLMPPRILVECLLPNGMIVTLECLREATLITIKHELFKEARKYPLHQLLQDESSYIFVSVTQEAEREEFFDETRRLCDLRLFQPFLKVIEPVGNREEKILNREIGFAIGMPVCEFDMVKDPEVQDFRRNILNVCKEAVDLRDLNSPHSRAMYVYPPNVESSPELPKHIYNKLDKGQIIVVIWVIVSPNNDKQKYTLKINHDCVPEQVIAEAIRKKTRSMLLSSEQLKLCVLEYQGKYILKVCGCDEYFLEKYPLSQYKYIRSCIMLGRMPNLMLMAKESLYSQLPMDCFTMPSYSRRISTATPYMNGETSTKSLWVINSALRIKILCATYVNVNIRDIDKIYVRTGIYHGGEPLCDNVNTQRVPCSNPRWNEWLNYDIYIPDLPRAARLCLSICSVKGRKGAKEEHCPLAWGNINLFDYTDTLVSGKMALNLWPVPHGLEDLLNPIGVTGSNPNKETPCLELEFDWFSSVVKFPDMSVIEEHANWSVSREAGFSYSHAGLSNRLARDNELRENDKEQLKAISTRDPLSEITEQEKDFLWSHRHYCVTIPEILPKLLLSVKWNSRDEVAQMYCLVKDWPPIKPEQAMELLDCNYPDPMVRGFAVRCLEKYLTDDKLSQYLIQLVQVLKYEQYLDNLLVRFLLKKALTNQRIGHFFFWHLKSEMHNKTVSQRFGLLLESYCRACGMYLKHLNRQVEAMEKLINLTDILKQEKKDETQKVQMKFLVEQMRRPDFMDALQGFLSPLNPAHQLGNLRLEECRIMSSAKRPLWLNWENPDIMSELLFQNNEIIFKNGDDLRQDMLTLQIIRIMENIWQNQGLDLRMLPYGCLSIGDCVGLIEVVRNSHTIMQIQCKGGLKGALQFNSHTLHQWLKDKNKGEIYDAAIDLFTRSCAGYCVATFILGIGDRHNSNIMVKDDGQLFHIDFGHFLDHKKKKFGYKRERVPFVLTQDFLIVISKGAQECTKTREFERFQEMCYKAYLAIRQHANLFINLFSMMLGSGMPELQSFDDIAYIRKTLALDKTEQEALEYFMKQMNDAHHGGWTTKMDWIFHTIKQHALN
Sequence of MAPK14 (human) (Q16539 whole entry, looked up): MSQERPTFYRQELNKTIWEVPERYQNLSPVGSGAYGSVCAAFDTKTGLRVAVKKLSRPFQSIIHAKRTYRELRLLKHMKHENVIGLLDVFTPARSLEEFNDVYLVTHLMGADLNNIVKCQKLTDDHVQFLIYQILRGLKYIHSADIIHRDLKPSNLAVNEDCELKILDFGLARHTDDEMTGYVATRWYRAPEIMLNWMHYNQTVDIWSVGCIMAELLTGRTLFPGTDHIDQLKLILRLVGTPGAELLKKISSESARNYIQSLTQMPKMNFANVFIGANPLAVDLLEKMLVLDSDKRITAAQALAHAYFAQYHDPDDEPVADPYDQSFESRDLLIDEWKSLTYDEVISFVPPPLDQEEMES
Sequence of EGFR (P00533 whole entry, looked up): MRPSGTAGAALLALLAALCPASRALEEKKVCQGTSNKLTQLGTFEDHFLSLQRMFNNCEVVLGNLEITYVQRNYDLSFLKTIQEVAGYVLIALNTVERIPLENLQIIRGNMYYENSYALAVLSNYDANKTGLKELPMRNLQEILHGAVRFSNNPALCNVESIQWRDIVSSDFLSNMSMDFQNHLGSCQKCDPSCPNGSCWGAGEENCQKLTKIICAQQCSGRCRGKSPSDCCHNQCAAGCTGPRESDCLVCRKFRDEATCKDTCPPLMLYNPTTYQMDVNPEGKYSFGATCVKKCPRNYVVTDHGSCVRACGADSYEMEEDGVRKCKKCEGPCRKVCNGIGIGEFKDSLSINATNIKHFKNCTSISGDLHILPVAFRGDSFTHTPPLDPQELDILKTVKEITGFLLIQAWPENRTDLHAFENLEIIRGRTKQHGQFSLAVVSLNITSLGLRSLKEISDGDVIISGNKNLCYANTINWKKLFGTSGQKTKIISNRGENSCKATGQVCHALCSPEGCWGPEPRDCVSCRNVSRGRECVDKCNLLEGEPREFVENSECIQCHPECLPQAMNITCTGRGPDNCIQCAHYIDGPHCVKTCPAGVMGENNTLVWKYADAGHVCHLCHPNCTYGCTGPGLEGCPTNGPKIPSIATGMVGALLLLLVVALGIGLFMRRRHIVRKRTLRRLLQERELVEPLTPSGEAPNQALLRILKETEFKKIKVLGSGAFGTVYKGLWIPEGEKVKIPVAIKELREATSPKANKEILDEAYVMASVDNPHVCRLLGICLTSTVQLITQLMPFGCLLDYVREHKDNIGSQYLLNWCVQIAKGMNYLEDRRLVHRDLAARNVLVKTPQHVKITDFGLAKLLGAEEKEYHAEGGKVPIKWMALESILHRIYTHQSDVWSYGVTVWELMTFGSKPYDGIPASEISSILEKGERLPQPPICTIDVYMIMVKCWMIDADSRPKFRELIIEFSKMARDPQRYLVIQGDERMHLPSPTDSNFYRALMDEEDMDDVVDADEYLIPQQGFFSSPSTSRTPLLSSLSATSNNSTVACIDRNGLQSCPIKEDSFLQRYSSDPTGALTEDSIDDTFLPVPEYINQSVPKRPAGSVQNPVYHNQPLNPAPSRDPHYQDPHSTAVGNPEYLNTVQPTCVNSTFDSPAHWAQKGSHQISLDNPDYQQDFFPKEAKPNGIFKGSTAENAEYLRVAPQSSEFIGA
Sequence of EGFR (human) (P00533 whole entry, looked up): as above
Sequence of PIK3CD (Human) (O00329 whole entry, looked up): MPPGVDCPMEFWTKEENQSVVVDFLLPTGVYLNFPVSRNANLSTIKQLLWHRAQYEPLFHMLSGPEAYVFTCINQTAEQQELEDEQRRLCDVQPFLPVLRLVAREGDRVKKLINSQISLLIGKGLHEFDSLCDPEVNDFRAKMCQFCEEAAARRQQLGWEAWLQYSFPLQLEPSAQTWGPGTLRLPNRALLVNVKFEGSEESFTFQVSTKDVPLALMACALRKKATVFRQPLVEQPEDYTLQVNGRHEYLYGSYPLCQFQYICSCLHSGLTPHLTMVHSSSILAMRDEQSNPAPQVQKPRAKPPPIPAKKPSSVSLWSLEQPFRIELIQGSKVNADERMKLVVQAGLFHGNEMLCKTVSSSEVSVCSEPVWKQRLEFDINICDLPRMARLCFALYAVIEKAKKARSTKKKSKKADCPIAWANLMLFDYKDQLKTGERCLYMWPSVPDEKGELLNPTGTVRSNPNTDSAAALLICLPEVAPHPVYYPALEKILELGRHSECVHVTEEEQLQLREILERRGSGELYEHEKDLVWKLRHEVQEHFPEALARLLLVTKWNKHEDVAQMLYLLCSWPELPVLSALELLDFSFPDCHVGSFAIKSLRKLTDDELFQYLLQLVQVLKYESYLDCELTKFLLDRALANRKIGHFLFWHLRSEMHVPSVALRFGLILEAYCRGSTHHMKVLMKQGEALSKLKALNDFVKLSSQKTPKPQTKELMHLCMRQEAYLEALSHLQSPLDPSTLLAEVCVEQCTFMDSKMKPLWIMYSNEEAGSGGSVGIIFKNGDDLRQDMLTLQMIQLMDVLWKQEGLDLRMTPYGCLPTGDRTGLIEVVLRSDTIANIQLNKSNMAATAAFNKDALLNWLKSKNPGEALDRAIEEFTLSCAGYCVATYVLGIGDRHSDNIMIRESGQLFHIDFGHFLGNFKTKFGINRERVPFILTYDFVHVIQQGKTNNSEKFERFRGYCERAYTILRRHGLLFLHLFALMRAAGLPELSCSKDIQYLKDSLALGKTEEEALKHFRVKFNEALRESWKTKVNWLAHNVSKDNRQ

As for `CC(=O)N(C)Cc1cc2nc(-c3cnc(N)nc3)nc(N3CCOCC3)c2s1`, the negative-log EC50 (pEC50) (as a rule, −log10 of the EC50, conventionally taken in molar units) in test [1] was 6.72 and 6.73.
Regarding `C=C=CCOc1cc2c(Nc3ccc(F)c(Cl)c3)ncnc2cc1OC`, at EGFR (human) [2], the pIC50 (usually the IC50 on a negative log10 scale, so that one unit is a factor of ten) was 7.62.
On to `Cc1ccnc(NS(=O)(=O)c2ccc(Nc3nc(C)c4c(=O)[nH]c(Nc5ccc(S(=O)(=O)O)cc5)nc4n3)cc2)n1`, for which the values for the pIC50 at CDK2 (human) and at EGFR (human) [3] were less than 5.00 and 5.09, respectively.
With `COc1cc2ncnc(Nc3ccc(F)c(Cl)c3)c2cc1O[C@H]1CC[C@H](NC(=O)N2CCOCC2)CC1`, the pIC50 against EGFR (human) [4] was 9.52.
On MAPK14 (human) [5], `NC(=O)Cc1cccc(-n2nc(-c3ccccc3F)cc2NC(=O)Nc2cccc(Cl)c2Cl)c1` showed a pIC50 of 8.00.
Consider `Fc1cnc(Cl)nc1NCc1cc2cccc(Cl)c2nc1-c1ccccc1Cl`, for which the negative logarithm of the IC50 (pIC50) in [6] was 5.49.
Regarding `CC(C)(N)c1cc2nc(-c3cnc(N)nc3)nc(N3CCOCC3)c2s1`, the pEC50 in test [1] is 6.54.
Regarding `COc1cccc(Nc2nc(N)nc3[nH]c4cccc(Cl)c4c23)c1`, the pIC50 on EGFR (human) [7] was 3.78.
Turning to `C[C@H](Nc1nc(N)ncc1Cl)c1cc2cccc(Cl)c2nc1-c1ccccn1`, the pIC50 (at PIK3CD (Human) [8]; in test [6]) was 6.98 each time.
`NC(=O)Cc1cccc(-n2nc(-c3ccccc3)cc2NC(=O)Nc2cccc(Cl)c2Cl)c1`: the pIC50 against MAPK14 (human) [5] is 7.92.
As for `Cc1ccnc(NS(=O)(=O)c2ccc(Nc3nc(C)c4c(=O)[nH]c(Nc5cccc(Cl)c5)nc4n3)cc2)n1`, the figures for the negative logarithm of the IC50 (pIC50) against CDK2 (human) and against EGFR (human) [3] were 7.30 and less than 5.00, respectively.
In turn, `Fc1ccc(-c2c(-c3ccnc(Oc4ccccc4)n3)nn3c2OCCC3)cc1` showed a pIC50 on MAPK14 (human) [9] of less than 5.00.
In the case of `Nc1nc(Nc2ccc(Cl)cc2)c2c(n1)[nH]c1cccc(Cl)c12`, at EGFR (human) [7], the pIC50 was 4.36.
The molecule `COC[C@H](C)Nc1nccc(-c2nn3c(c2-c2ccc(F)cc2)OCC3)n1` had a negative-log IC50 (pIC50) on MAPK14 (human) [9] of 5.77.
On to `CS(=O)(=O)CCNCc1nc(-c2ccc3ncnc(Nc4ccc(OCc5ccccc5)c(Cl)c4)c3c2)cs1`, for which, on EGFR (human) [10], the pIC50 is 6.64.
In the case of `Cc1ccn2ncnc(Nc3ccc4c(cnn4Cc4cccc(F)c4)c3)c12`, the negative-log IC50 (pIC50) against EGFR was 7.09.
For `CC.COc1cc2ncnc(Nc3ccc(F)c(Cl)c3)c2cc1OC1CCN(S(=O)(=O)N2CCOCC2)CC1`, on EGFR (human) [4], the pIC50 is 10.00.
`C=CC(=O)Nc1ccc(F)c(Nc2nc(Nc3cn(C)nc3C)ncc2Cl)c1` gave a pIC50 in test [11] of more than 8.00.
In turn, `O=C1CNCCN(Cc2ccn3ncnc(Nc4ccc5c(cnn5Cc5cccc(F)c5)c4)c23)C1` showed a pIC50 at EGFR of 7.11.
Consider `Cc1c(Cn2ccn3c(=O)cc(C4C=COCC4)nc23)cccc1C(F)(F)F` (stereo unspecified), for which the pIC50 on PIK3CB (Human) was 7.89; against PIK3CD (Human) [12], 7.40.
In the case of `Nc1ncc(-c2nc(N3CCOCC3)c3sccc3n2)cn1`, in test [1], the pEC50 is 6.37.
On MAPK14 (murine), `COc1ccc(C(=O)N2C3CCC2CC(Cc2ccc(NC(=O)Nc4cc(C(C)(C)C)nn4-c4ccc(C)cc4)cc2)C3)c(OC)c1` (stereo unspecified) had a pIC50 of 5.93.
Turning to `C=C=CCOc1cc2c(Nc3cccc(Cl)c3)ncnc2cc1OC`, the pIC50 against EGFR (human) [2] is 7.77.
The molecule `Cc1ccnc(NS(=O)(=O)c2ccc(Nc3nc(C)c4c(=O)[nH]c(SCc5ccccc5)nc4n3)cc2)n1` showed a pIC50 at EGFR (human) [3] of 5.11.
Take `CS(=O)(=O)c1cccc(-c2cc3nc(-c4cnc(N)nc4)nc(N4CCOCC4)c3s2)c1`: the pEC50 in test [1] was 7.40 and 7.48.
At EGFR (human) [7], `CC(C)c1ccc(Nc2nc(NC(=O)C(C)(C)C)nc3[nH]c4cccc(Cl)c4c23)cc1` showed a pIC50 of less than 3.60.
Turning to `Cc1cccc2cc(CNc3ccnc(C(N)=O)c3)c(-c3ccccc3Cl)nc12`, the pIC50 in [6] is 4.82.
At EGFR (human) [4], `COc1cc2ncnc(Nc3ccc(F)c(Cl)c3)c2cc1O[C@H]1CC[C@H](NS(=O)(=O)N(C)C)CC1` had a pIC50 of 9.00.
Turning to `Cc1ccnc(NS(=O)(=O)c2ccc(Nc3nc(-c4ccc(O)cc4O)c4c(=O)[nH]c(SCc5ccccc5)nc4n3)cc2)n1`, the pIC50 against EGFR (human) [3] is 5.26.
`COC(=O)C1CCN(Cc2ccn3ncnc(Nc4ccc5c(cnn5Cc5cccc(F)c5)c4)c23)CC1` showed a pIC50 against EGFR of less than 6.00.
`Nc1ncc(F)c(NCc2cc3cccc(Cl)c3nc2-c2ccccc2Cl)n1` had a pIC50 in test [6] of 6.04.
For the molecule `CCC(C)N(C)c1nc(Nc2cc(C(N)=O)ccc2C)nc(N[C@H]2CCNC2)n1` (stereo partly specified), the values for the pIC50 at MAPK14 (human) [13] and at MAPK14 (human) [14] were 6.49 and 7.55, respectively.
For `Cc1ccsc1-c1cc(NC(=O)Nc2cccc(Cl)c2Cl)n(-c2cccc(CC(N)=O)c2)n1`, the pIC50 against MAPK14 (human) [5] was 7.07.
`COc1ccc(C(=O)N2CCC(Cc3cccc(NC(=O)Nc4cc(C(C)(C)C)nn4-c4ccc(C)cc4)c3)CC2)c(OC)c1`: the negative logarithm of the IC50 (pIC50) on MAPK14 (murine) was 6.67.
`COc1cc2ncnc(Nc3ccc(F)c(Cl)c3)c2cc1O[C@H]1CC[C@H](NS(=O)(=O)N2CCOCC2)CC1` showed a pIC50 against EGFR (human) [4] of 9.40.
In [1], `CN(Cc1cc2nc(-c3cnc(N)nc3)nc(N3CCOCC3)c2s1)S(C)(=O)=O` had a pEC50 of 6.77.
